For one compound, Kd results are on record in patent publication US8729047B2, “Compositions for inhibiting redox-sensitive GTPases” (Board of Regents, The University of Texas System, priority 2010, dated 2014).

Assay [1] concerns the target T1, RhoA (Homo sapiens, UniProt P61586).
T1 construct: made in house; host or cells: E. coli
The experiment in a line: Competitive binding assay, [3H]GDP-loaded Rho protein titrated with 6-TGDP (FIG. 16A). How it is done:
FIG. 16. Kinetic properties of RhoC with 6-TGDP in the presence or absence of a redox agent. All kinetic analyses are described elsewhere herein. (A) ^appKD values of Rac1, RhoA, RhoC, and RhoC C20S for 6-TGDP were estimated to be 7.9, 11.6, 11.8, and 11.2 μM, respectively. ^trueKD values of Rac1, RhoA, and RhoC for 6-TGDP were then calculated to be 5.1, 10.8, 11.1, and 10.5 μM, respectively, by using a compensation equation, ^trueKD for 6-TGDP=^appKD for 6-TGDP/(1+[[^3H]GDP]/^trueKD for GDP) (Heo, J., and Hong, I. (2010) Biochemistry 49, 3965-3976), in conjunction with the values given. […] The GDP dissociation rates from RhoC C20S by NO, .NO2, and N2O3 were estimated to be 0.02×10^−3, 0.05×10^−3, and 0.04×10^−3 s^−1, respectively. […] (D) ^appKD values of RhoC for [^3H]GDP in the presence or absence of DTT were estimated to be 22.4 μM and […], respectively. ^appKD values of C20S RhoC for [^3H]GDP in the presence or absence of DTT were determined to be 24.8 μM and 25.2 μM, respectively. […]
(a) A competitive binding assay was performed to determine the binding affinity of Rho GTPase and 6-TGDP. […] Each membrane was washed three times with the assay buffer, and radioactivity was determined using a Beckman-Coulter scintillation counter. The radioactivity of the sample (Rho protein-bound [^3H]GDP) was converted into, and thus plotted, as the fraction of mol GDP per mol total Rho protein. […]

Another assay has as its target Ras (Homo sapiens, UniProt P01112). The assay can be described thus: Guanine nucleotide exchange of [3H]GDP-loaded GTPase with 6-TGDP (FIG. 13A). It counts as binding. Particulars: [3H]GDP-loaded GTPase 1 μM, 6-TGDP 0-2000 μM, 1 h, read-out: appKD for 6-TGDP. How it is done:
(§1) FIG. 13. Guanine nucleotide exchange of small GTPases with 6-TGDP. (A) To monitor 6-TGDP-mediated GTPase GDP dissociation, [^3H]GDP-loaded GTPase (1 μM) was incubated with 6-TGDP (0-2000 μM) for 1 h. (B) To monitor GTPase 6-TGDP dissociation by GDP (0-2000 μM) in the presence and absence of dithiothreitol (DTT), 6-TGDP-loaded GTPase (˜1 μM) was treated with .NO2 (˜3 μM) under anaerobic conditions and was incubated with various concentrations of [^3H]GDP (0-2000 μM) in the presence and absence of DTT (10 mM) for 1 h. For all assays, aliquots were withdrawn and spotted onto nitrocellulose filters. The filters were then washed three times with an assay buffer, and radioactivity was determined using a Beckman-Coulter scintillation counter. The resultant radioactivity (dpm) values associated with GTPase-bound [^3H]GDP were converted into the fraction of mol nucleotide per mol total GTPase. The data presented represent mean and standard error values from triplicate measurements. The apparent dissociation constants (appKD values) of GTPase 6-TGDP association ([^3H]GDP dissociation, A); and 6-TGDP dissociation ([3H]GDP association, B) were obtained by fitting the data to a simple dissociation and association, respectively. […]
(§2) A kinetic assay method using radiolabeled GDP ([^3H]GDP) was established. The apparent dissociation constants (^appKD 6-TGDP) of Rho GTPases (including RhoA, Cdc42, and Rac1/2/3) and Ras with 6-TGDP were determined (FIG. 13). […]
(§3) The true dissociation constant (^trueKD 6-TGDP) of Ras, RhoC, RhoA and Rac1 for 6-TGDP was then calculated to be ˜20.7 pM, 212 μM, 208 μM, and 158 μM [6-TGDP] by using a compensation equation, ^trueKD 6-TGDP=^appKD 6-TGDP/(1+[GDP]/^trueKD GDP) (95), in conjunction with the values given [(^appKD 6-TGDP of Ras, RhoC, RhoA, and Rac1=2300, 230, 224, and 245 μM (FIG. 13) and ^trueKD GDP=9 pM, 12 μM, 13 μM and 1.8 μM, respectively. The ^trueKD GDP of Ras, RhoA and Rac1 was determined previously (Lenzen et al. Biochemistry 37, 7420-7430 (1998); Heo et al. Biochemistry 44, 6573-6585 (2005)) and the ^trueKD GDP of RhoC was further determined. […]

Assay [2] has as its target T1, RhoA. Described as above. It counts as binding. How it is done: as §1, §2, §3

T1 sequence (P61586 whole entry, species assumed): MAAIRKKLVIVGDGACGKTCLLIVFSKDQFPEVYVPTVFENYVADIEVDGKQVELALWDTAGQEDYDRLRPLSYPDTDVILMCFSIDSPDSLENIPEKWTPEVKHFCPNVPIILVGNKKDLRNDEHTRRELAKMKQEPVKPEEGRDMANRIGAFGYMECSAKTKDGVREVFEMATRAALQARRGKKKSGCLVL
Sequence of Ras (P01112 whole entry): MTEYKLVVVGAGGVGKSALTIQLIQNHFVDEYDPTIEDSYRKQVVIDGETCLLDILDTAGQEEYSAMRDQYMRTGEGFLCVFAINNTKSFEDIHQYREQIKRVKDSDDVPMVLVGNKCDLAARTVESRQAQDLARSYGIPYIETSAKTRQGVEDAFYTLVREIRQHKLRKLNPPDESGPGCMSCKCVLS

On to `Nc1nc2c(ncn2[C@@H]2O[C@H](COP(=O)(O)OP(=O)(O)O)[C@@H](O)[C@H]2O)c(=S)[nH]1` [6-TGDP, 6-thioguanosine diphosphate], for which the Kd on RhoA [1] ([3H]GDP-loaded Rho protein 1 μM titrated with 6-TGDP, read-out: appKD for 6-TGDP) is 11.6 µM; at RhoA [1] (calculated by compensation equation, read-out: trueKD for 6-TGDP), 10.8 µM; at Ras, 2300 µM; on RhoA [2] ([3H]GDP-loaded GTPase 1 μM, 6-TGDP 0-2000 μM, 1 h, FIG. 13A, read-out: appKD for 6-TGDP) it was 224 µM; on RhoA [2] (calculated by compensation equation from appKD 6-TGDP and trueKD GDP, read-out: trueKD 6-TGDP), 208 µM.
